Assays:
MCF7 = experiment: Cytotoxicity against human MCF7 cells; format: functional
HeLa = experiment: Cytotoxicity against human HeLa cells; format: functional

SMILES | GI50 (MCF7) | GI50 (HeLa)
CC[C@]1(O)C[C@H]2CN(CCc3c([nH]c4ccc(C#N)cc34)[C@@](C(=O)OC)(c3cc4c(cc3OC)N(C)[C@H]3[C@@](O)(C(=O)OC)[C@H](OC(C)=O)[C@]5(CC)CC=CN6CC[C@]43[C@@H]65)C2)C1 | 3 nM | 3 nM
CCSc1ccc2[nH]c3c(c2c1)CCN1C[C@H](C[C@@](O)(CC)C1)C[C@]3(C(=O)OC)c1cc2c(cc1OC)N(C)[C@H]1[C@@](O)(C(=O)OC)[C@H](OC(C)=O)[C@]3(CC)CC=CN4CC[C@]21[C@@H]43 | 3 nM | 2 nM
CC[C@]1(O)C[C@H]2CN(CCc3c([nH]c4ccc(-c5ccccc5)cc34)[C@@](C(=O)OC)(c3cc4c(cc3OC)N(C)[C@H]3[C@@](O)(C(=O)OC)[C@H](OC(C)=O)[C@]5(CC)CC=CN6CC[C@]43[C@@H]65)C2)C1 | 300 nM | 400 nM
C#Cc1ccc2[nH]c3c(c2c1)CCN1C[C@H](C[C@@](O)(CC)C1)C[C@]3(C(=O)OC)c1cc2c(cc1OC)N(C)[C@H]1[C@@](O)(C(=O)OC)[C@H](OC(C)=O)[C@]3(CC)CC=CN4CC[C@]21[C@@H]43 | 5 nM | 20 nM
CC[C@]1(O)C[C@H]2CN(CCc3c([nH]c4ccc(C(=O)OC)cc34)[C@@](C(=O)OC)(c3cc4c(cc3OC)N(C)[C@H]3[C@@](O)(C(=O)OC)[C@H](OC(C)=O)[C@]5(CC)CC=CN6CC[C@]43[C@@H]65)C2)C1 | 30 nM | 20 nM
CC[C@]1(O)C[C@H]2CN(CCc3c([nH]c4ccc(C(=O)O)cc34)[C@@](C(=O)OC)(c3cc4c(cc3OC)N(C)[C@H]3[C@@](O)(C(=O)OC)[C@H](OC(C)=O)[C@]5(CC)CC=CN6CC[C@]43[C@@H]65)C2)C1 | > 1000 nM | > 1000 nM
CC[C@]1(O)C[C@H]2CN(CCc3c([nH]c4ccc(C(C)=O)cc34)[C@@](C(=O)OC)(c3cc4c(cc3OC)N(C)[C@H]3[C@@](O)(C(=O)OC)[C@H](OC(C)=O)[C@]5(CC)CC=CN6CC[C@]43[C@@H]65)C2)C1 | 100 nM | 200 nM
CC[C@]1(O)C[C@H]2CN(CCc3c([nH]c4ccc(N)cc34)[C@@](C(=O)OC)(c3cc4c(cc3OC)N(C)[C@H]3[C@@](O)(C(=O)OC)[C@H](OC(C)=O)[C@]5(CC)CC=CN6CC[C@]43[C@@H]65)C2)C1 | 200 nM | 200 nM
CC[C@]1(O)C[C@H]2CN(CCc3c([nH]c4ccc(-c5cccc(F)c5)cc34)[C@@](C(=O)OC)(c3cc4c(cc3OC)N(C)[C@H]3[C@@](O)(C(=O)OC)[C@H](OC(C)=O)[C@]5(CC)CC=CN6CC[C@]43[C@@H]65)C2)C1 | 300 nM | 300 nM
CC[C@]1(O)C[C@H]2CN(CCc3c([nH]c4ccc(SCC(=O)O)cc34)[C@@](C(=O)OC)(c3cc4c(cc3OC)N(C)[C@H]3[C@@](O)(C(=O)OC)[C@H](OC(C)=O)[C@]5(CC)CC=CN6CC[C@]43[C@@H]65)C2)C1 | 200 nM | 50 nM
CC[C@]1(O)C[C@H]2CN(CCc3c([nH]c4ccc(C(N)=O)cc34)[C@@](C(=O)OC)(c3cc4c(cc3OC)N(C)[C@H]3[C@@](O)(C(=O)OC)[C@H](OC(C)=O)[C@]5(CC)CC=CN6CC[C@]43[C@@H]65)C2)C1 | > 1000 nM | > 1000 nM
CCc1ccc2[nH]c3c(c2c1)CCN1C[C@H](C[C@@](O)(CC)C1)C[C@]3(C(=O)OC)c1cc2c(cc1OC)N(C)[C@H]1[C@@](O)(C(=O)OC)[C@H](OC(C)=O)[C@]3(CC)CC=CN4CC[C@]21[C@@H]43 | 0.6 nM | 0.3 nM
CC[C@]1(O)C[C@H]2CN(CCc3c([nH]c4ccc(-c5nccs5)cc34)[C@@](C(=O)OC)(c3cc4c(cc3OC)N(C)[C@H]3[C@@](O)(C(=O)OC)[C@H](OC(C)=O)[C@]5(CC)CC=CN6CC[C@]43[C@@H]65)C2)C1 | 100 nM | 200 nM
